Laboratory results from paper PMC7435819, “Towards the Inhibition of Protein–Protein Interactions (PPIs) in STAT3: Insights into a New Class of Benzothiadiazole Derivatives” (Molecules, 2020).
Like-named read-outs stand apart in the source and are kept apart here.

Assays:
STAT3 Cys542A = molecular target: T1, STAT3 Cys542A (Homo sapiens, UniProt P40763, C542A); assay: AlphaScreen-based assay, STAT3 single-cysteine mutant Cys542A; format: binding; settings: for % of control, STAT3 AlphaScreen: Cys542A
T1 construct: a truncated form of STAT3 (136-705) was constructed and chromatographically purified; made in house
T1 sequence (P40763 136-705 C542A): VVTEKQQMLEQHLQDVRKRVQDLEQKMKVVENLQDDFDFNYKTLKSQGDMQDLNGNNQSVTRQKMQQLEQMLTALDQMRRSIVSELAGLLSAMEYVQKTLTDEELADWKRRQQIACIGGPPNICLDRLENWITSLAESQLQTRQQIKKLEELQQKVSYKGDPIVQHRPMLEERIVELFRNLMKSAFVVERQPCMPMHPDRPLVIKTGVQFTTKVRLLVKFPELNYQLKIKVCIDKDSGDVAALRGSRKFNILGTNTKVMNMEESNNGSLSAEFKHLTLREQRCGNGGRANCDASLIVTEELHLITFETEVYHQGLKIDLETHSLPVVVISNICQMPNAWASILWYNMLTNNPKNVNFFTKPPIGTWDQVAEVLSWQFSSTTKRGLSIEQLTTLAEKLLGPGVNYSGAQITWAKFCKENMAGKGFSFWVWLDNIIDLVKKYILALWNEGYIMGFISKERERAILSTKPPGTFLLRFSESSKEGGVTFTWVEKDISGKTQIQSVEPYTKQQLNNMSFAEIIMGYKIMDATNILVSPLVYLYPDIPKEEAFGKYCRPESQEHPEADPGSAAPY
Description: (§1) Furthermore, to gain insight into the activity of compound 1, its interaction with the cysteine residues located in the vicinities of the SH2 domain (Figure 3) was investigated and evaluated by an AlphaScreen-based assay using different mutants (Table 3).
(§2) The same procedure was used to evaluate compound 1 activity versus STAT3 single-cysteine-residue mutants (Cys468A, Cys542A, Cys550A, Cys687A, and Cys712A). Briefly, 3 µL of compound 1 in DMSO (at 0.3, 1, 3, 10 and 30 µM concentration) were premixed with 1 µL of L-Cys in PBS and 16 µL of an AlphaScreen buffer. Then, the mixture was immediately (<5 min) mixed with the STAT3 mutant solution before adding the FITC-peptide.

STAT3 = molecular target: T2, STAT3 (Homo sapiens, UniProt P40763); assay: AlphaScreen-based competitive binding assay, STAT3 SH2 domain vs FITC-GpYLPQTV; settings: for % of control, STAT3 AlphaScreen: WT
T2 construct: a truncated form of STAT3 (136-705) was constructed and chromatographically purified; made in house
T2 sequence (P40763 136-705): as the sequence (P40763 136-705 C542A) above, with A407C counted along it
Description: (§3) AlphaScreen is an in vitro competitive binding test used to identify compounds that are able to inhibit the binding of proteins containing an SH2 domain to their corresponding phosphopeptides (5-carboxyfluorescein (FITC)-GpYLPQTV for STAT3 and FITC-GpYDKPHVL for STAT1) (Table 2).
(§4) AlphaScreen is a bead-based non-radioactive assay system for the detection of biomolecular interactions in a microtiter plate format. The binding of biological partners brings donor and acceptor beads into close proximity and, as a result, a fluorescent signal between 520 and 620 nm was produced. The AlphaScreen-based assays were performed in a final reaction volume of 25 μL of the assay buffer containing 10 mM HEPES–NaOH (pH 7.4), 50 mM NaCl, 1 mM EDTA (pH 8.0), 0.1% NP-40, and 10 ng/μL bovine serum albumin (BSA) in a 96-well microtiter plate at 25 °C. The pTyr peptide probes used in this study were 5-carboxyfluorescein (FITC)-GpYLPQTV for STAT3 and (FITC)-GpYDKPHVL for STAT1. Plasmid construction and protein expression were performed as previously described; the experimental method is briefly summarized as follows. Considering that the expression of the full-length protein is troublesome, a truncated form of STAT3 (136-705) was constructed and chromatographically purified (AKTA FPLC system; GE Healthcare Bio-Sciences, Piscataway, NJ, USA). The soluble STAT3 fraction was loaded on a HisTrap™ column (GE Healthcare Bio-Sciences) and eluted with an imidazole gradient (50 mM Tris–HCl pH 7.4, 300 mM NaCl, 0.2 mM EDTA, 0.1% (w/v) NP-40, 5 mM β-mercaptoethanol, 10% (v/v) glycerol, and 10–300 mM imidazole). An SDS-PAGE stained with Coomassie Brilliant Blue (CBB) was performed to check the purity of the protein (see Figure S71). Subsequently, the protein was dialyzed (10 mM HEPES-NaOH pH 7.4, 50 mM NaCl, 10 mM β-mercaptoethanol, 0.1 mM EGTA, 0.02% (w/v) NP-40, 0.2 mM phenylmethylsulphonyl fluoride (PMSF), and 10% (v/v) glycerol).
(§5) Firstly, 75 nM of each SH2-containing protein were incubated with the test compound (at the following concentrations: 1, 3, 10, and 30 µM) for 15 min. Each protein sample was then incubated for 90 min with 50 nM of its corresponding FITC-pTyr peptide and simultaneously mixed with streptavidin-coated donor beads and anti-FITC acceptor beads before detection at 570 nm using EnVison Xcite (PerkinElmer, Waltham, MA, USA).

STAT1 = molecular target: T3, STAT1 (Homo sapiens, UniProt P42224); assay: AlphaScreen-based competitive binding assay, STAT1 vs FITC-GpYDKPHVL; settings: read-out: STAT1 inhibition: IC50
T3 sequence (P42224 1-750): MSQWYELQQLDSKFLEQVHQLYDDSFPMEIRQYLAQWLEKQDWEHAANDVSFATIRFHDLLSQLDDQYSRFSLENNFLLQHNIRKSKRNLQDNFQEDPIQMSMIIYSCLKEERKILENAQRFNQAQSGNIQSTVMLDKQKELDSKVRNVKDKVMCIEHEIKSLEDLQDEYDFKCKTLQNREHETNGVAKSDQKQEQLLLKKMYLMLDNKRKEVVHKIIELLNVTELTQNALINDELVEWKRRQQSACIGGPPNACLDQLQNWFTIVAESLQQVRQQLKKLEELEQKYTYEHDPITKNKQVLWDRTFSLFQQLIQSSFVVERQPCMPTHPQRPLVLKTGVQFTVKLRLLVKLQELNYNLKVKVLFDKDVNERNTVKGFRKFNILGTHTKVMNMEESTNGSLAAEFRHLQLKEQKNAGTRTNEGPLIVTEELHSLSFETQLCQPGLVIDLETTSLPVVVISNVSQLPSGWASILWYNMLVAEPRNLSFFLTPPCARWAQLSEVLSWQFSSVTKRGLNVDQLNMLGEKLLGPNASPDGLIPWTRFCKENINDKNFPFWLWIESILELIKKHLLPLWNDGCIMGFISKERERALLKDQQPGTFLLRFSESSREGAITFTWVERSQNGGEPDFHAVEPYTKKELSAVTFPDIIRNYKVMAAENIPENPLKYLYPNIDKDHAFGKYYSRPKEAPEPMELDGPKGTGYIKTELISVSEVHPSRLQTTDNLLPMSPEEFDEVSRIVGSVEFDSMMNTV
Description: as §3
as §4, with “The soluble STAT3 fraction was loaded on a HisTrap™ column (GE Healthcare Bio-Sciences) and eluted with an imidazole gradient (50 mM Tris–HCl pH 7.4, 300 mM NaCl, 0.2 mM EDTA, 0.1% (w/v) NP-40, 5 mM β-mercaptoethanol, 10% (v/v) glycerol, and 10–300 mM imidazole). An SDS-PAGE stained with Coomassie Brilliant Blue (CBB) was performed to check the purity of the protein (see Figure S71). Subsequently, the protein was dialyzed (10 mM HEPES-NaOH pH 7.4, 50 mM NaCl, 10 mM β-mercaptoethanol, 0.1 mM EGTA, 0.02% (w/v) NP-40, 0.2 mM phenylmethylsulphonyl fluoride (PMSF), and 10% (v/v) glycerol).” left out

[1] = set-up: method as in doi:10.1039/P29840001851; settings: cited from earlier work
STAT3 Cys712A = molecular target: T4, STAT3 Cys712A (Homo sapiens, UniProt P40763, C712A); assay: AlphaScreen-based assay, STAT3 single-cysteine mutant Cys712A; format: binding; settings: for % of control, STAT3 AlphaScreen: Cys712A
T4 construct: made in house
T4 sequence (P40763 whole entry C712A): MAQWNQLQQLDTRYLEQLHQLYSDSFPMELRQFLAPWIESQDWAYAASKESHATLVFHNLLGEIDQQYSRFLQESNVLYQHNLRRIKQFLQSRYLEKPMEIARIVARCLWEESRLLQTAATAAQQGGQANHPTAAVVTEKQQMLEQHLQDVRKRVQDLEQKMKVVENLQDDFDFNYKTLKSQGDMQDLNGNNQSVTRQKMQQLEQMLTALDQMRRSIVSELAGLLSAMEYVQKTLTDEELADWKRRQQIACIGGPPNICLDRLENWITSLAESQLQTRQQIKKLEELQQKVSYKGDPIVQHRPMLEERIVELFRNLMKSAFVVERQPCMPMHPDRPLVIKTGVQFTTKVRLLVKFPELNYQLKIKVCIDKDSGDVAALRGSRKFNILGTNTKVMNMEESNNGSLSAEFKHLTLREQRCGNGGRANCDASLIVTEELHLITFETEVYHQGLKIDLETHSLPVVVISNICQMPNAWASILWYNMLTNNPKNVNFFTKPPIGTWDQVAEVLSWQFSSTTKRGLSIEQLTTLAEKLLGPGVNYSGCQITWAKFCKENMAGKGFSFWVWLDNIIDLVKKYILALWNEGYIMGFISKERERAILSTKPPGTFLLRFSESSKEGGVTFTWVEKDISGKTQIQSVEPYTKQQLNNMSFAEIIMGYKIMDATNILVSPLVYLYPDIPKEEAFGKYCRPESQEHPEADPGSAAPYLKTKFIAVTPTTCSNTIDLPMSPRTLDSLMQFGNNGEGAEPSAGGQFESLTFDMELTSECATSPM
Description: as §1, §2

Grb2 = Grb2 (Homo sapiens, UniProt P62993); assay: AlphaScreen-based assay, Grb2 (other SH2 domain-containing protein); format: binding; settings: 30 µM
Chain of Grb2 (P62993 whole entry, species assumed, the tested form may be a part): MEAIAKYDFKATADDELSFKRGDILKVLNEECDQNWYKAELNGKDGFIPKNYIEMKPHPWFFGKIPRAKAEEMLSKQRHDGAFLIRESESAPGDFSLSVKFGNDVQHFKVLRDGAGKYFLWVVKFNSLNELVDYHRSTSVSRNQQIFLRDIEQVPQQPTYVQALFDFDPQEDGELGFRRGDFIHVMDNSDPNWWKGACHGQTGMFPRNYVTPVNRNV
Description: as §3, §5

STAT3 Cys468A = molecular target: T5, STAT3 Cys468A (Homo sapiens, UniProt P40763, C468A); assay: AlphaScreen-based assay, STAT3 single-cysteine mutant Cys468A; format: binding; settings: for % of control, STAT3 AlphaScreen: Cys468A
T5 construct: a truncated form of STAT3 (136-705) was constructed and chromatographically purified; made in house
T5 sequence (P40763 136-705 C468A): as the sequence (P40763 136-705 C542A) above, with C333A, A407C counted along it
Description: as §1, §2

STAT3 Cys687A = molecular target: T6, STAT3 Cys687A (Homo sapiens, UniProt P40763, C687A); assay: AlphaScreen-based assay, STAT3 single-cysteine mutant Cys687A; format: binding; settings: for % of control, STAT3 AlphaScreen: Cys687A
T6 construct: a truncated form of STAT3 (136-705) was constructed and chromatographically purified; made in house
T6 sequence (P40763 136-705 C687A): as the sequence (P40763 136-705 C542A) above, with A407C, C552A counted along it
Description: as §1, §2

STAT3 Cys550A = molecular target: T7, STAT3 Cys550A (Homo sapiens, UniProt P40763, C550A); assay: AlphaScreen-based assay, STAT3 single-cysteine mutant Cys550A; format: binding; settings: for % of control, STAT3 AlphaScreen: Cys550A
T7 construct: a truncated form of STAT3 (136-705) was constructed and chromatographically purified; made in house
T7 sequence (P40763 136-705 C550A): as the sequence (P40763 136-705 C542A) above, with A407C, C415A counted along it
Description: as §1, §2

Cc1cc2c(cc1C)NS(=O)(=O)N2 [Compound 1, 5,6-Dimethyl-1H,3H-2,1,3-benzothiadiazole-2,2-dioxide]
% of control, STAT3 AlphaScreen (STAT3 Cys542A; [1] 1 μM): 102.5 % of control | % of control, STAT3 AlphaScreen (STAT3 Cys542A; [1] 3 μM): 101.3 % of control | % of control, STAT3 AlphaScreen (STAT3 Cys542A; [1] 10 μM): 98.1 % of control | % of control, STAT3 AlphaScreen (STAT3 Cys542A; [1] 30 μM): 92.3 % of control | IC50 (STAT3 Cys542A; mutated Cys542A): > 30 µM | inhibition at 30 µM (STAT3; 30 µM, n.a.: not active, read-out: STAT3 % Inhibition (30 µM)): 96.5 ± 1.1% | IC50 (STAT3; STAT3 wild-type (WT), read-out: STAT3 inhibition: IC50): 15.8 µM | inhibition at 30 µM (STAT3; Table 1, AlphaScreen-based assay at 30 µM, STAT3-SH2 domain, read-out: % Inhibition): 96.5% | % of control, STAT3 AlphaScreen (STAT3; [1] 1 μM): 98.6 % of control | % of control, STAT3 AlphaScreen (STAT3; [1] 3 μM): 94.1 % of control | % of control, STAT3 AlphaScreen (STAT3; [1] 10 μM): 72.4 % of control | % of control, STAT3 AlphaScreen (STAT3; [1] 30 μM): 18.4 % of control | IC50 (STAT1): > 50 µM | pKa [1]: 6.88 ± 0.03 | % of control, STAT3 AlphaScreen (STAT3 Cys712A; [1] 1 μM): 113.4 % of control | % of control, STAT3 AlphaScreen (STAT3 Cys712A; [1] 3 μM): 112.4 % of control | % of control, STAT3 AlphaScreen (STAT3 Cys712A; [1] 10 μM): 110.5 % of control | % of control, STAT3 AlphaScreen (STAT3 Cys712A; [1] 30 μM): 108.0 % of control | IC50 (STAT3 Cys712A; mutated Cys712A): > 30 µM | inhibition versus Grb2 (Grb2): 23% | % of control, STAT3 AlphaScreen (STAT3 Cys468A; [1] 1 μM): 111.8 % of control | % of control, STAT3 AlphaScreen (STAT3 Cys468A; [1] 3 μM): 108.3 % of control | % of control, STAT3 AlphaScreen (STAT3 Cys468A; [1] 10 μM): 101.1 % of control | % of control, STAT3 AlphaScreen (STAT3 Cys468A; [1] 30 μM): 79.7 % of control | IC50 (STAT3 Cys468A; mutated Cys468A): > 30 µM | melting point: 148 °C | % of control, STAT3 AlphaScreen (STAT3 Cys687A; [1] 1 μM): 93.3 % of control | % of control, STAT3 AlphaScreen (STAT3 Cys687A; [1] 3 μM): 89.7 % of control | % of control, STAT3 AlphaScreen (STAT3 Cys687A; [1] 10 μM): 78.3 % of control | % of control, STAT3 AlphaScreen (STAT3 Cys687A; [1] 30 μM): 51.9 % of control | IC50 (STAT3 Cys687A; mutated Cys687A): > 30 µM | % of control, STAT3 AlphaScreen (STAT3 Cys550A; [1] 1 μM): 132.9 % of control | % of control, STAT3 AlphaScreen (STAT3 Cys550A; [1] 3 μM): 136.0 % of control | % of control, STAT3 AlphaScreen (STAT3 Cys550A; [1] 10 μM): 135.2 % of control | % of control, STAT3 AlphaScreen (STAT3 Cys550A; [1] 30 μM): 124.7 % of control | IC50 (STAT3 Cys550A; mutated Cys550A): > 30 µM
